Values quoted from earlier work as cited in US7931880B2, “Production of silver sulfate grains using inorganic additives” (Eastman Kodak Company, priority 2007, dated 2011).

Assays:
Staphylococcus aureus = details: in polymethylmethacrylate bone cement at 0.5% concentration
Escherichia coli = details: in polymethylmethacrylate bone cement at 0.5% concentration
Pseudomonas aeruginosa = details: in polymethylmethacrylate bone cement at 0.5% concentration

Molecule	Additive Silver Solubility (silver salt of the additive anion) [g/100 mL]	Additive Sulfate Solubility (sulfate salt of the additive cation) [g/100 mL]	inhibition of bacterial growth (Staphylococcus aureus)	inhibition of bacterial growth (Escherichia coli)	inhibition of bacterial growth (Pseudomonas aeruginosa)
[Na+].[Na+].[O]=[W](=[O])([O-])[O-] [Na2WO4, sodium tungstate]	0.0070	7.7			
[Cl][Ag] [Silver chloride]			significantly inhibit	significantly inhibit	significantly inhibit
silver oxide			significantly inhibit	significantly inhibit	significantly inhibit
O=S(=O)([O-])[O-].[Ag+].[Ag+] [silver sulfate]			significantly inhibit	significantly inhibit	significantly inhibit
